How the values were obtained:
[1] = system: biofilm made of Streptococcus sanguis, Actinomyces naeslundii, Porphyromonas gingivalis, and Fusobacterium nucleatum; assay: Removal of mature biofilm grown on hydroxyapatite or titanium disks, live/dead staining; type: cell-based; settings: hydroxyapatite discs, GLDA alone at different concentrations
Method: Following assay calibration, biofilm made of Streptococcus sanguis, Actinomyces naeslundii, Porphyromonas gingivalis, and Fusobacterium nucleatum was grown on tooth surfaces (hydroxyapatite (HA) disks) or dental implants surfaces (sandblast acid-etched titanium surfaces, SLA).
The mature biofilms were washed in saline (control) or saline with PolyP (at 8% to 0.2% w/v) for 45 min at 37° C. The biofilm that remained on the disks was stained with live/dead fluorescent stains and analyzed using a florescence microscope. Results are shown as representative microscopic images (FIG. 1), and as a quantification of the florescence intensity in relative florescence units (RFU) (FIGS. 2-3).
In this experiment, the ability of the chelating agent GLDA to clear biofilm, either alone or in combination with PolyP at 0.02% and 0.5%, was tested. As described in Example 4, biofilm was grown and treated with the different solutions, and the residual biofilm was stained and quantified. The results are shown as a quantification of the florescence intensity in relative florescence units (RFU) (FIGS. 4-5).

[2] = pH of GLDA-PolyP combinations; type: physicochemical; settings: No PolyP
Method: While acidic or basic environment in solution breakdown biofilm, it may be harmful for the human tissue at the periodontal pockets. In this experiment we thus measured the pH levels of the GLDA/PolyP combination that were tested in Example 5.

Q: With “Tetrasodium N,N-bis(carboxymethyl)-L-glutamate [GLDA]” as the substance, how does the “residual biofilm (fluorescence intensity)” value [1] read?
A: Its value is “dose dependent efficacy”.

Q: And the pH ([2]; GLDA 0.05%)?
A: Its pH is 7.

Q: And the pH ([2]; GLDA 0.3%)?
A: Its pH is 9.6.

Q: What about the pH ([2]; GLDA 1%) of the same substance?
A: Its pH is 11.5.

Reference: US20250195567A1, “COMPOSITIONS FOR REMOVING MICROBIAL BIOFILM OR INHIBITING FORMATION THEREOF” (Prudentix Ltd., priority 2022, published 2025)
